The Deep4Chem optical property database
One block for each molecule: values may come before it.

Experiment: photoluminescence quantum yield (fraction); solvent given as SMILES
[1] = in c1cc(-n2c3ccccc3c3ccccc32)cc(-n2c3ccccc3c3ccccc32)c1
[2] = in O=P(c1ccccc1)(c1ccccc1)c1ccccc1Oc1ccccc1P(=O)(c1ccccc1)c1ccccc1

Compound: Brc1ccc(-c2nc(-c3ccc(C#Cc4ccc(-n5c6ccccc6c6ccccc65)cc4)cc3)nc(-c3ccc(C#Cc4ccc(-n5c6ccccc6c6ccccc65)cc4)cc3)n2)cc1
- photoluminescence quantum yield (in C1CCOC1): 0.68
- photoluminescence quantum yield (in CC#N): 0.02
- photoluminescence quantum yield (in CCCCCC): 0.9
- photoluminescence quantum yield (in Cc1ccccc1): 0.96
- photoluminescence quantum yield (in ClCCl): 0.65

Compound: c1ccc(-c2nn(-c3ccccc3)c3nc4ccccc4cc23)cc1
- photoluminescence quantum yield (in C1CCCCC1): 0.86
- photoluminescence quantum yield (in C1CCOC1): 0.9
- photoluminescence quantum yield (in CC#N): 0.73
- photoluminescence quantum yield (in CC(C)=O): 0.85
- photoluminescence quantum yield (in CCCCCl): 0.91
- photoluminescence quantum yield (in CCCCOCCCC): 0.88
- photoluminescence quantum yield (in CN(C)C=O): 0.78

Compound: CC(=O)c1ccc(-c2cc(C)[o+]c(C)c2)cc1
- photoluminescence quantum yield (in ClCCl): 0.03

Compound: O=C(c1ccc(N2c3ccccc3Oc3ccccc32)cc1)c1ccc(N2c3ccccc3Oc3ccccc32)cc1
- photoluminescence quantum yield (in Cc1ccccc1): 0.44
- photoluminescence quantum yield [1]: 0.7

Compound: COc1cc(/C=C/C(=O)O)ccc1O
- photoluminescence quantum yield (in O): 0.002

Compound: COc1ccc(-n2nc(C(=O)N3CCCC3)c(N3CCCC3)n2)cc1
- photoluminescence quantum yield (in CC#N): 0.555
- photoluminescence quantum yield (in CCCCCC): 0.94
- photoluminescence quantum yield (in CCO): 0.9
- photoluminescence quantum yield (in CN(C)C=O): 0.77
- photoluminescence quantum yield (in ClC(Cl)Cl): 0.64

Compound: FC(F)(F)c1ccc(-c2ncc3ccccn23)cc1
- photoluminescence quantum yield (in ClC(Cl)Cl): 0.04

Compound: CC(C)(C)c1ccc(N(c2ccc(C(C)(C)C)cc2)c2ccc(S(=O)(=O)c3ccc(N(c4ccc(C(C)(C)C)cc4)c4ccc(C(C)(C)C)cc4)cc3)cc2)cc1
- photoluminescence quantum yield (in Cc1ccccc1): 0.65

Compound: CCCCc1cc2cccc3cc(CCCC)c4cc(-c5cc6[b-]7c(c5)c(CCCC)cc5cccc(cc6CCCC)[n+]75)cc1[b-]4[n+]23
- photoluminescence quantum yield (in C1CCCCC1): 0.06

Compound: CN1CCCc2cc(C3=Cc4cccc[n+]4[B-](F)(F)O3)ccc21
- photoluminescence quantum yield (in ClC(Cl)Cl): 0.55

Compound: C1=Nc2cccc3cccc(c23)N1
- photoluminescence quantum yield (in CC#N): 0.0013
- photoluminescence quantum yield (in CO): 0.0005
- photoluminescence quantum yield (in CS(C)=O): 0.0031
- photoluminescence quantum yield (in Cc1ccccc1): 0.005

Compound: CC1=[N+]2C(=C(c3ccc(-c4c5ccccc5c(-c5ccccc5)c5ccccc45)cc3)c3ccc(C)n3[B-]2(F)F)C=C1
- photoluminescence quantum yield (in CC#N): 0.002
- photoluminescence quantum yield (in CCCCCC): 0.204
- photoluminescence quantum yield (in CCO): 0.037
- photoluminescence quantum yield (in CN(C)C=O): 0.002
- photoluminescence quantum yield (in Cc1ccccc1): 0.259
- photoluminescence quantum yield (in ClCCl): 0.027

Compound: O=C1/C(=C2\Sc3ccc(S(=O)(=O)Cl)cc3C2=O)Sc2ccc(S(=O)(=O)Cl)cc21
- photoluminescence quantum yield (in C1COCCO1): 0.949
- photoluminescence quantum yield (in CS(C)=O): 0.012

Compound: C(=C\c1ccc(-c2ccc(/C=C/c3ccc(-n4c5ccccc5c5ccccc54)cc3)s2)s1)/c1ccc(-n2c3ccccc3c3ccccc32)cc1
- photoluminescence quantum yield (in C1CCOC1): 0.1
- photoluminescence quantum yield (in CC#N): 0.09
- photoluminescence quantum yield (in CC(C)=O): 0.09
- photoluminescence quantum yield (in CN(C)C=O): 0.11
- photoluminescence quantum yield (in Cc1ccccc1): 0.11

Compound: CCN(CC)c1ccc2cc3ccc(=[N+](CC)CC)cc-3oc2c1
- photoluminescence quantum yield (in CC#N): 0.85
- photoluminescence quantum yield (in CCO): 0.95
- photoluminescence quantum yield (in CN(C)C=O): 0.74
- photoluminescence quantum yield (in O): 0.94

Compound: COC(=O)CC1(C(=O)OC)Oc2c(c(C(C)=O)c3c(c2C(C)=O)OCO3)O1
- photoluminescence quantum yield (in CC#N): 0.62

Compound: CCCCN1C(=O)c2cc(Br)c3c4c(Br)c(Br)c5c6c(cc(Br)c(c7c(Br)c(Br)c(c2c37)C1=O)c64)C(=O)N(CCCC)C5=O
- photoluminescence quantum yield (in ClC(Cl)Cl): 0.11

Compound: N#C/C(=C\c1ccncc1)c1nc(-c2ccc(Cl)cc2)cs1
- photoluminescence quantum yield (in CC#N): 0.168

Compound: O=c1c2ccccc2nc2ccccn12
- photoluminescence quantum yield (in ClCCl): 0.96

Compound: Cc1nnc(-c2cc(-c3nnc(C)o3)c(-n3c4ccccc4c4ccccc43)cc2-n2c3ccccc3c3ccccc32)o1
- photoluminescence quantum yield (in Cc1ccccc1): 0.068
- photoluminescence quantum yield [2]: 0.59

Compound: C[Si](C)(C)C#Cc1cc2ccc3cc(C#C[Si](C)(C)C)cc4ccc(c1)c2c34
- photoluminescence quantum yield (in Cc1ccccc1): 0.19

Compound: CC1=CC(C)=[N+]2C1=C(c1ccc(N3CCCCC3)cc1)c1c(C)cc(C)n1[B-]2(F)F
- photoluminescence quantum yield (in C1CCOC1): 0.008
- photoluminescence quantum yield (in CC#N): 0.005
- photoluminescence quantum yield (in CC(=O)C(C)(C)C): 0.024
- photoluminescence quantum yield (in CC(C)=O): 0.002
- photoluminescence quantum yield (in CCCCCC): 0.384
- photoluminescence quantum yield (in CCOC(C)=O): 0.006

Compound: CCCCC(CC)Cn1c2cc(C#N)ccc2c2ccc(C#Cc3ccc4ccc5c(C#Cc6ccc7c8ccc(C#N)cc8n(CC(CC)CCCC)c7c6)cc(C#Cc6ccc7c8ccc(C#N)cc8n(CC(CC)CCCC)c7c6)c6ccc3c4c56)cc21 (stereo not drawn)
- photoluminescence quantum yield (in ClCCl): 0.64

Compound: CC(C)(C)c1ccc(C2=C(Br)C3=C(c4ccccc4)c4c(Br)c(-c5ccc(C(C)(C)C)cc5)c(-c5ccc(C(C)(C)C)cc5)n4[B-](F)(F)[N+]3=C2c2ccc(C(C)(C)C)cc2)cc1
- photoluminescence quantum yield (in C1CCCCC1): 0.13
- photoluminescence quantum yield (in C1CCOC1): 0.11
- photoluminescence quantum yield (in CC#N): 0.03
- photoluminescence quantum yield (in Cc1ccccc1): 0.1
- photoluminescence quantum yield (in ClCCl): 0.09

Compound: CCCCN1C(=O)c2cc(Oc3ccc(C(C)(C)C)cc3)c3c4c(Oc5ccc(C(C)(C)C)cc5)c(Oc5ccc(C(C)(C)C)cc5)c5c6c(cc(Oc7ccc(C(C)(C)C)cc7)c(c7c(Oc8ccc(C(C)(C)C)cc8)c(Oc8ccc(C(C)(C)C)cc8)c(c2c37)C1=O)c64)C(=O)N(CCCC)C5=O
- photoluminescence quantum yield (in ClC(Cl)Cl): 0.75

Compound: COc1ccc(/C=C2\OC(=O)c3cc(N)ccc32)cc1
- photoluminescence quantum yield (in CC#N): 0.38
- photoluminescence quantum yield (in CC(C)=O): 0.21
- photoluminescence quantum yield (in CC(C)CO): 0.44
- photoluminescence quantum yield (in CC(C)O): 0.4
- photoluminescence quantum yield (in CCCO): 0.46
- photoluminescence quantum yield (in CCO): 0.34
- photoluminescence quantum yield (in CCOC(C)=O): 0.2
- photoluminescence quantum yield (in CCOCC): 0.11
- photoluminescence quantum yield (in CO): 0.29

Compound: COc1ccc(C#Cc2nc3ccccc3nc2-c2cn(C)c3ccccc23)cc1
- photoluminescence quantum yield (in C1CCOC1): 0.19
- photoluminescence quantum yield (in CC#N): 0.13
- photoluminescence quantum yield (in CC(C)=O): 0.16
- photoluminescence quantum yield (in CC(C)O): 0.02
- photoluminescence quantum yield (in CCO): 0.01
- photoluminescence quantum yield (in CCOC(C)=O): 0.17
- photoluminescence quantum yield (in CO): 0.01
- photoluminescence quantum yield (in Cc1ccccc1): 0.3
- photoluminescence quantum yield (in ClCCl): 0.19

Compound: c1ccc(-c2nnc(-c3ccc(N4c5ccccc5N(c5ccccc5)c5ccccc54)cc3)n2-c2ccccc2)cc1
- photoluminescence quantum yield (in Cc1ccccc1): 0.07
- photoluminescence quantum yield [1]: 0.42

Compound: CN(C)c1ccc(C#CC2=C3CCc4ccccc4C3=[O+][B-](F)(F)O2)cc1
- photoluminescence quantum yield (in ClCCl): 0

Compound: CC(C)(C(=O)c1ccc(N2c3ccccc3Oc3ccccc32)cc1)C(=O)c1ccc(N2c3ccccc3Oc3ccccc32)cc1
- photoluminescence quantum yield (in c1ccc2c(c1)c1ccccc1n2-c1ccc(-c2ccc(-n3c4ccccc4c4ccccc43)cc2)cc1): 0.54

Compound: CC1(C)c2ccccc2N(c2ccc(-c3nc(-c4ccccc4)cc(-c4ccccc4)n3)cc2)c2ccccc21
- photoluminescence quantum yield (in CC#N): 0.018
- photoluminescence quantum yield (in Cc1ccccc1): 0.339
- photoluminescence quantum yield (in ClCCl): 0.632
- photoluminescence quantum yield [2]: 0.61

Compound: COc1ccc2c(-c3nc(-c4cccc(C)c4)no3)cc(=O)oc2c1
- photoluminescence quantum yield (in CCO): 0.52
- photoluminescence quantum yield (in ClC(Cl)Cl): 0.12

Compound: CCOCCOCCOC(=O)/C=C/C1=CC2=C(c3c(C)cc(C)cc3C)c3cccn3[B-](F)(F)[N+]2=C1
- photoluminescence quantum yield (in ClCCl): 0.35

Compound: CC(=O)c1ccc(NC(=O)c2ccc(N(C)C)cc2)cc1
- photoluminescence quantum yield (in C1CCCCC1): 0.0006
- photoluminescence quantum yield (in C1CCOC1): 0.0158
- photoluminescence quantum yield (in CC#N): 0.0017
- photoluminescence quantum yield (in CCOCC): 0.001

Continued, values first:

- photoluminescence quantum yield (in ClCCl): 0.2
Compound: O=[N+]([O-])c1ccc(O)c(-c2nc3c(c4c2-c2ccccc2CC4)-c2ccccc2CC3)c1

- photoluminescence quantum yield (in ClCCl): 0.55
Compound: c1ccc(N(c2ccccc2)c2ccc(-c3ccncn3)cc2)cc1

- photoluminescence quantum yield (in CC#N): 0.1
Compound: CN1/C(=C\C=C\C2=C3C=CC(c4ccccc4)=[N+]3[B-](F)(F)n3c2ccc3-c2ccccc2)C(C)(C)c2ccccc21

- photoluminescence quantum yield (in C1CCOC1): 5e-05
Compound: C1=Cc2ccccc2C(=Cc2ccc(C=C3c4ccccc4C=Cc4ccccc43)cc2)c2ccccc21

- photoluminescence quantum yield (in CO): 0.2
Compound: Cc1ccc(-c2nc(-c3ccc(O)cc3)[nH]c2-c2ccc(C)cc2)cc1

- photoluminescence quantum yield (in CC#N): 0.49
- photoluminescence quantum yield (in CO): 0.4
- photoluminescence quantum yield (in ClCCl): 0.59
Compound: CCOC(=O)c1ccc(O)c(-c2[nH]c(=O)n3c2-c2ccccc2C3=O)c1

- photoluminescence quantum yield (in C1CCOC1): 0.23
Compound: CCC1(CC)c2ccccc2-c2c1c1c(c3c2C(CC)(CC)c2cc(/C=C/c4cccs4)ccc2-3)C(CC)(CC)c2ccccc2-1

- photoluminescence quantum yield (in CO): 0.14
Compound: CC1(C)C(/C=C/C2=C(Oc3ccc(CCN=C=S)cc3F)C(=C/C=C3/N(CCCS(=O)(=O)[O-])c4ccccc4C3(C)C)/CCC2)=[N+](CCCS(=O)(=O)[O-])c2ccccc21

- photoluminescence quantum yield (in ClCCl): 0.28
Compound: C(#Cc1cccc2ccccc12)c1ncc(-c2ccccc2)o1

- photoluminescence quantum yield (in CC#N): 0.029
- photoluminescence quantum yield (in CO): 0.021
Compound: CC(C)CCCN1c2ccccc2CCc2ccccc21

- photoluminescence quantum yield (in ClCCl): 0.22
Compound: N#Cc1ccc(-c2cc3c(ccc4sccc43)s2)cc1

- photoluminescence quantum yield (in ClC(Cl)Cl): 0.91
Compound: CCCCCCn1c2cc(/C=C/c3ccccc3)ccc2c2ccc(/C=C/c3ccccc3)cc21

- photoluminescence quantum yield (in ClCCl): 0.31
Compound: CCCCc1ccc2c(c1)c1ccc3cccc4c3c1c1c2c2cccc3ccc5c6cc(CCCC)ccc6c4c1c5c32

- photoluminescence quantum yield (in ClCCl): 0.25
Compound: C(=C\c1ncnc2ccccc12)/c1ccc(N(c2ccccc2)c2ccccc2)cc1

- photoluminescence quantum yield (in CCO): 0.37
- photoluminescence quantum yield (in ClCCl): 0.13
- photoluminescence quantum yield (in O): 0.42
Compound: CC[N+]1=C(/C=C/c2c(C)nn3c(-c4ccc(OC)cc4)ccnc23)C(C)(C)c2ccccc21

- photoluminescence quantum yield (in CO): 0.092
Compound: CC1(C)C(/C=C/C2=C(c3ccc(C(=O)O)cc3)C(=C/C=C3/N(CCCCS(=O)(=O)[O-])c4ccc5ccccc5c4C3(C)C)/CCC2)=[N+](CCCCS(=O)(=O)[O-])c2ccc3ccccc3c21

- photoluminescence quantum yield (in C1CCCCC1): 0.73
Compound: CCc1c(C)c2n(c1C)[B-](F)(F)[N+]1=C(C=C3c4ccccc4-c4ccccc43)C=CC1=C2C

- photoluminescence quantum yield (in ClCCl): 0.76
Compound: O=S1(=O)C2=C(c3ccccc31)C1(C3=C(c4ccccc41)S(=O)(=O)c1ccccc13)c1ccccc12

- photoluminescence quantum yield (in ClC(Cl)Cl): 0.18
Compound: N#CC(C#N)=Cc1ccc(-c2ccc(N(c3ccccc3)c3ccccc3)cc2)s1
